{"source": "patent US20240101510A1", "about": "“APYRASE INHIBITORS” (Texas Crop Science, priority 2022, published 2024)"}
{"test_system": "apyrase", "assay": "In vitro apyrase assay (screen for apyrase inhibitors, phosphate release read at 630 nm)", "format": "biochemical", "details": "inhibitor conc at 1 mM; 1 hr at room temperature; rounded average of two assay results", "method": "Method 1: In Vitro Apyrase Assay: Apyrase inhibitors useful as enhancers of pesticidal activity are assessed using an in vitro assay. The method of Windsor, Bio Techniques 33:1024-1030 (November 2002) was used as follows: Screen for Apyrase Inhibitors - 96 well plates were used for the assay: (Greiner bio-one: REF-655901-96 well, PS, F-bottom, Clear, Non-binding) Buffers: • Reaction Buffer: 60 mM Hepes; 3 mM MgCl2, 3 mM CaCl2 and 3 mM ATP (pH 6.5) • Development Buffer A: 2% aqueous ammonium molybdate • Development Buffer B: 11% ascorbic acid in 37.5% TCA in water • Stop buffer C: 2% trisodium citrate in 2% acetic acid solution in water • Add 100 μl of reaction buffer to each well. • Add […] (control) or inhibitor/compound or compounds such as […] or orthovanadate to each well. […] A blank cell indicates either <10% observed inhibition or a large difference between repetitions. In certain examples, the lack of observed inhibition is due to a lack of solubility of the compound under assay conditions, rather than a lack of apyrase inhibitory activity. Roux compound 15 inhibited apyrase in this assay at about 60%.", "units": {"% Inhibition of Apyrase": "%"}}
{"smiles": "C/C(=N\\NC(=O)c1ccc2c(c1)OCO2)c1cccnc1", "note": "[I-10, (E)-N′-(1-(pyridin-3-yl)ethylidene)benzo[d][1,3]dioxole-5-carbohydrazide]", "% Inhibition of Apyrase": 17}
{"smiles": "CC(C)(C)/C=N/NC(=O)c1ccccc1", "note": "[I-26, (E)-N′-(2,2-dimethylpropylidene)benzohydrazide]", "% Inhibition of Apyrase": 11}
{"smiles": "CCCC(CCC)=NNC(=O)c1ccccc1F", "note": "[I-30, 2-fluoro-N′-(heptan-4-ylidene)benzohydrazide]", "% Inhibition of Apyrase": 10}
{"smiles": "C/C(=N/NC(=O)c1ccccc1)C(=O)O", "note": "[I-17, (Z)-2-(2-benzoylhydrazineylidene)propanoic acid]", "% Inhibition of Apyrase": 14}
{"smiles": "C/C(=N\\NC(=O)c1cccc(C(F)(F)F)c1)c1ccc2ccccc2c1", "note": "[I-210, (E)-N′-(1-(naphthalen-2-yl)ethylidene)-3-(trifluoromethyl)benzohydrazide]", "% Inhibition of Apyrase": 63}
{"smiles": "CCc1cccc(C(=O)N/N=C(\\C)c2ccc3ccccc3c2)c1", "note": "[I-218, (E)-3-ethyl-N′-(1-(naphthalen-2-yl)ethylidene)benzohydrazide]", "% Inhibition of Apyrase": 42}
{"smiles": "C/C(=N\\NC(=O)c1ccc(C)c(C)c1)c1ccc2ccccc2c1", "note": "[I-206, (E)-3,4-dimethyl-N′-(1-(naphthalen-2-yl)ethylidene)benzohydrazide]", "% Inhibition of Apyrase": 68}
{"smiles": "C/C(=N\\NC(=O)c1cccc(N(C)C)c1)c1ccc2ccccc2c1", "note": "[I-209, (E)-3-(dimethylamino)-N′-(1-(naphthalen-2-yl)ethylidene)benzohydrazide]", "% Inhibition of Apyrase": 65}
{"smiles": "C/C(=N\\NC(=O)c1ccnc(C)n1)c1ccc2ccccc2c1", "note": "[I-219, (E)-2-methyl-N′-(1-(naphthalen-2-yl)ethylidene)pyrimidine-4-carbohydrazide]", "% Inhibition of Apyrase": 40}
{"smiles": "C/C(=N\\NC(=O)c1ccc(-n2cnnn2)cc1)c1ccc2ccccc2c1", "note": "[I-8, (E)-N′-(1-(naphthalen-2-yl)ethylidene)-4-(1H-tetrazol-1-yl)benzohydrazide]", "% Inhibition of Apyrase": 19}
{"smiles": "C/C(=N\\NC(=O)c1ccc(C)s1)c1ccc2ccccc2c1", "note": "[I-212, (E)-5-methyl-N′-(1-(naphthalen-2-yl)ethylidene)thiophene-2-carbohydrazide]", "% Inhibition of Apyrase": 56}
{"smiles": "CC(=NNC(=O)c1cccc(C)c1)c1ccc2c(c1)CCCC2", "note": "[I-204, (E)-3-methyl-N′-(1-(5,6,7,8-tetrahydronapthalen-2-yl)ethylidene)benzohydrazide]", "% Inhibition of Apyrase": 74}
{"smiles": "C/C(=N\\NC(=O)c1csc(C)c1)c1ccc2ccccc2c1", "note": "[I-216, (E)-5-methyl-N′-(1-(naphthalen-2-yl)ethylidene)thiophene-3-carbohydrazidee]", "% Inhibition of Apyrase": 44}
{"smiles": "C/C(=N\\NC(=O)c1ccc(NS(=O)(=O)c2cccs2)cc1)c1ccc2ccccc2c1", "note": "[I-2, (E)-N-(4-(2-(1-(naphthalen-2-yl)ethylidene)hydrazine-1-carbonyl)phenyl)thiophene-2-sulfonamide]", "% Inhibition of Apyrase": 60}
{"smiles": "C/C(=N\\NC(=O)c1n[nH]c2c1CCCC2)c1ccc2ccccc2c1", "note": "[I-14, (E)-N′-(1-(naphthalen-2-yl)ethylidene)-4,5,6,7-tetrahydro-1H-indazole-3-carbohydrazide]", "% Inhibition of Apyrase": 16}
{"smiles": "CCCCCC(=O)N/N=C(/C)c1ccc2ccccc2c1", "note": "[I-24, (Z)-N′-(1-(naphthalen-2-yl)ethylidene)hexanehydrazide]", "% Inhibition of Apyrase": 11}
{"smiles": "COc1ccc2cc(/C(C)=N/NC(=O)c3ccc4c(c3)OCO4)ccc2c1", "note": "[I-13, (E)-N′-(1-(6-methoxynaphthalen-2-yl)ethylidene)benzo[d][1,3]dioxole-5-carbohydrazide]", "% Inhibition of Apyrase": 16}
{"smiles": "C/C(=N\\NC(=O)c1cccc2ccccc12)c1ccc(C)c(C)c1", "note": "[I-11, (E)-N′-(1-(3,4-dimethylphenyl)ethylidene)-1-naphthohydrazide]", "% Inhibition of Apyrase": 17}
{"smiles": "CNS(=O)(=O)c1cccc(C(=O)N/N=C(\\C)c2ccc3ccccc3c2)c1", "note": "[I-222, (E)-N-methyl-3-(2-(1-(naphthalen-2-yl)ethylidene)hydrazine-1-carbonyl)benzenesulfonamide]", "% Inhibition of Apyrase": 12}
{"smiles": "C/C(=N/NC(=O)c1cccc(C)c1)c1ccc2ccccc2c1", "note": "[I-7, (Z)-3-methyl-N′-(1-(naphthalen-2-yl)ethylidene)benzohydrazide]", "% Inhibition of Apyrase": 20}
{"smiles": "C/C(=N\\NC(=O)c1cccc(Cl)c1)c1ccc2ccccc2c1", "note": "[I-31, (E)-3-chloro-N′-(1-(naphthalen-2-yl)ethylidene)benzohydrazide]", "% Inhibition of Apyrase": 10}
{"smiles": "C/C(=N\\NC(=O)c1cnnc(C)c1)c1ccc2ccccc2c1", "note": "[I-205, (E)-6-methyl-N′-(1-(naphthalen-2-yl)ethylidene)pyridazine-4-carbohydrazide]", "% Inhibition of Apyrase": 68}
{"smiles": "COc1ccc2cc(/C(C)=N/NC(=O)c3ccc(OC)c(OC)c3)ccc2c1", "note": "[I-20, (E)-3,4-dimethoxy-N′-(1-(6-methoxynaphthalen-2-yl)ethylidene)benzohydrazide]", "% Inhibition of Apyrase": 12}
{"smiles": "C/C(=N\\NC(=O)c1ccccc1)c1ccc(-c2ccccc2)cc1", "note": "[I-22, (E)-N′-(1-([1,1′-biphenyl]-4-yl)ethylidene)benzohydrazide]", "% Inhibition of Apyrase": 12}
{"smiles": "C/C(=N\\NC(=O)c1cccc(CO)c1)c1ccc2ccccc2c1", "note": "[I-220, (E)-3-(hydroxymethyl)-N′-(1-(naphthalen-2-yl)ethylidene)benzohydrazide]", "% Inhibition of Apyrase": 25}
{"smiles": "CCC/C=N/NC(=O)c1ccccc1", "note": "[I-19, (E)-N′-butylidenebenzohydrazide]", "% Inhibition of Apyrase": 13}
{"smiles": "Cc1ccc(/C=N/NC(=O)c2ccccc2)cc1", "note": "[I-33, (E)-N′-(4-methylbenzylidene)benzohydrazide]", "% Inhibition of Apyrase": 10}
{"smiles": "C/C(=N\\NC(=O)c1ccc(Cl)cc1Cl)c1ccccn1", "note": "[I-27, (E)-2,4-dichloro-N′-(1-(pyridin-2-yl)ethylidene)benzohydrazide]", "% Inhibition of Apyrase": 10}
{"smiles": "C/C(=N/NC(=O)c1cccc(C)c1)C1CC1", "note": "[I-32, (Z)-N′-(1-cyclopropylethylidene)-3-methylbenzohydrazide]", "% Inhibition of Apyrase": 10}
{"smiles": "CCCCCC(=O)N/N=C(\\C)c1cccc2ccccc12", "note": "[I-16, (E)-N′-(1-(naphthalen-1-yl)ethylidene)hexanehydrazide]", "% Inhibition of Apyrase": 14}
{"smiles": "C/C(=N\\NC(N)=O)c1cccc2ccccc12", "note": "[I-23, (E)-2-(1-(naphthalen-1-yl)ethylidene)hydrazine-1-carboxamide]", "% Inhibition of Apyrase": 12}
{"smiles": "C/C(=N\\NC(=O)c1cc(C)n[nH]1)c1ccc2ccccc2c1", "note": "[I-15, (E)-3-methyl-N′-(1-(naphthalen-2-yl)ethylidene)-1H-pyrazole-5-carbohydrazide]", "% Inhibition of Apyrase": 15}
{"smiles": "C/C(=N\\NC(=O)c1cccc([N+](=O)[O-])c1)c1ccc2ccccc2c1", "note": "[I-29, (E)-N′-(1-(naphthalen-2-yl)ethylidene)-3-nitrobenzohydrazide]", "% Inhibition of Apyrase": 10}
{"smiles": "C/C(=N\\NC(=O)c1ccccc1F)c1ccncc1", "note": "[I-12, (E)-2-fluoro-N′-(1-(pyridin-4-yl)ethylidene)benzohydrazide]", "% Inhibition of Apyrase": 16}
{"smiles": "C/C(=N\\NC(=O)c1ccccc1)c1ccc2ccccc2c1", "note": "[I-213, (E)-N′-(1-(naphthalen-2-yl)ethylidene)benzohydrazide]", "% Inhibition of Apyrase": 55}
{"smiles": "C/C(=N\\NC(=O)c1nccc(C)n1)c1ccc2ccccc2c1", "note": "[I-225, (E)-4-methyl-N′-(1-(naphthalen-2-yl)ethylidene)pyrimidine-2-carbohydrazide]", "% Inhibition of Apyrase": 6}
{"smiles": "CCCCCCCCC/C(C)=N\\NC(=O)c1ccccc1", "note": "[I-5, (Z)-N′-(undecan-2-ylidene)benzohydrazide]", "% Inhibition of Apyrase": 22}
{"smiles": "C/C(=N\\NC(=O)c1ccc(NS(C)(=O)=O)cc1)c1ccc2ccccc2c1", "note": "[I-208, (E)-N-(4-(2-(1-(naphthalen-2-yl)ethylidene)hydrazine-1-carbonyl)phenyl)methanesulfonamide]", "% Inhibition of Apyrase": 66}
{"smiles": "C/C(=N\\NC(=O)c1cccc(C)c1)c1ccc2c(c1)CCC2", "note": "[I-224, (E)-N′-(1-(2,3-dihydro-1H-inden-5-yl)ethylidene)-3-methylbenzohydrazide]", "% Inhibition of Apyrase": 10}
{"smiles": "C/C(=N\\NC(=O)c1cncc(Br)c1)c1ccc2ccccc2c1", "note": "[I-6, (E)-5-bromo-N′-(1-(naphthalen-2-yl)ethylidene)nicotinohydrazide]", "% Inhibition of Apyrase": 22}
{"smiles": "C/C(=N\\NC(=O)c1cccc(S(=O)(=O)N(C)C)c1)c1ccc2ccccc2c1", "note": "[I-221, (E)-N,N-dimethyl-3-(2-(1-(naphthalen-2-yl)ethylidene)hydrazine-1-carbonyl)benzenesulfonamide]", "% Inhibition of Apyrase": 23}
{"smiles": "C/C(=N\\NC(=O)c1ccccc1C)c1ccccn1", "note": "[I-18, (E)-2-methyl-N′-(1-(pyridin-2-yl)ethylidene)benzohydrazide]", "% Inhibition of Apyrase": 13}
{"smiles": "C/C(=N\\NC(=O)c1cccc(C)c1)c1ccc(C)c(C)c1", "note": "[I-217, (E)-N′-(1-(3,4-dimethylphenyl)ethylidene)-3-methylbenzohydrazide]", "% Inhibition of Apyrase": 44}
{"smiles": "C/C(=N\\NC(=O)c1cccc(C)n1)c1ccc2ccccc2c1", "note": "[I-211, (E)-6-methyl-N′-(1-(naphthalen-2-yl)ethylidene)picolinohydrazide]", "% Inhibition of Apyrase": 56}
{"smiles": "C/C(=N\\NC(=O)c1cccc(S(=O)(=O)Nc2ccccc2Cl)c1)c1ccc2ccccc2c1", "note": "[I-1, (E)-N-(2-chlorophenyl)-3-(2-(1-(naphthalen-2-yl)ethylidene)hydrazine-1-carbonyl)benzenesulfonamide]", "% Inhibition of Apyrase": 74}
{"smiles": "CCc1ccc(/C=N/NC(=O)c2ccccc2)cc1", "note": "[I-25, (E)-N′-(4-ethylbenzylidene)benzohydrazide]", "% Inhibition of Apyrase": 11}
